Source: US6828320B2, “Heterocyclic compounds” (SmithKline Beecham Corporation, priority 1996, dated 2004)
Structures can show the parent of a compound that is named as a salt.

Legend:
[1] = biological target: T1, EGFr isolated from solubilised A431 cell membranes (Homo sapiens, UniProt P00533); assay: Substrate phosphorylation assay, EGFr; assay type: biochemical; conditions: 30 minutes, room temperature, ATP and peptide at Km concentrations
T1 construct: EGFr isolated from solubilised A431 cell membranes; endogenous in cells; host or cells: A431 cell membranes (solubilised)
Protocol: (§1) The substrate phosphorylation assays use baculovirus expressed, recombinant constructs of the intracellular domains of c-erbB-2 and c-erbB-4 that are constitutively active and EGFr isolated from solubilised A431 cell membranes. The method measures the ability of the isolated enzymes to catalyse the transfer of the γ-phosphate from ATP onto tyrosine residues in a biotinylated synthetic peptide (Biotin-[…]. […] The reaction is stopped by the addition of EDTA (final concentration 0.15 mM) and a sample is transferred to a streptavidin-coated 96-well plate. The plate is washed and level of phosphotyrosine on the peptide is determined using a Europium-labelled antiphosphotyrosine antibody and quantified with a time-resolved fluorescence technique.

[2] = biological target: T2, c-erbB-2 (baculovirus expressed, recombinant intracellular domain) (Homo sapiens, UniProt P04626); assay: Substrate phosphorylation assay, c-erbB-2; assay type: biochemical; conditions: read-out: Substrate Phosphorylation erbB-2
T2 construct: baculovirus expressed, recombinant constructs of the intracellular domains of c-erbB-2 and c-erbB-4; made in house
Protocol: as §1

[3] = biological target: T3, c-erbB-4 (baculovirus expressed, recombinant intracellular domain) (Homo sapiens, UniProt Q15303); assay: Substrate phosphorylation assay, c-erbB-4; assay type: biochemical
T3 construct: baculovirus expressed, recombinant constructs of the intracellular domains of c-erbB-2 and c-erbB-4; made in house
Protocol: as §1

[4] = biological target: HB4a cell line transformed by over-expression of c-erbB-2 (Homo sapiens, UniProt P04626); assay: Cell proliferation assay, HB4a erbB-2; assay type: cell-based; conditions: 4 days at 37° C., methylene blue staining; read-out: Cell Proliferation HB4a erbB-2
Protocol: The cell proliferation assay uses an immortalised human breast epithelial cell line (HB4a) which has been transformed by over-expression of c-erbB-2. Growth of these cells in low serum is dependent upon the c-erbB-2 tyrosine kinase activity. […] Cells are plated at 3000/ well in 96-well plates in 0.1 ml medium and allowed to attach overnight. test compound is added in 0.1 ml medium, with a final concentration of 0.5% DMSO, and the plates incubated for 4 days at 37° C. The cells are then examined microscopically for evidence of morphological detransformation and cell mass is estimated by staining with methylene blue and measuring the absorbance at 620 nm. […] Activity against a range of naturally occurring EGFr or c-erbB-2 over-expressing human tumour cell lines (BT474-breast, HN5-head and neck, N87-gastric and Calu3-lung) is assessed with selected compounds by the same methodology.

[5] = system: HB4a cell line transfected with ras; assay: Cell proliferation assay, HB4a ras; assay type: cell-based, human; conditions: Homo sapiens, HB4a, 96 h; 4 days at 37° C., methylene blue staining; general toxicity control; read-out: Cell Proliferation HB4a ras
[6] = system: BT474-breast tumour cell line; assay: Cell proliferation assay, BT474; assay type: cell-based, human; conditions: Homo sapiens, BT-474, 96 h; same methodology, 4 days
Protocol: (§2) The cell proliferation assay uses an immortalised human breast epithelial cell line (HB4a) which has been transformed by over-expression of c-erbB-2. Growth of these cells in low serum is dependent upon the c-erbB-2 tyrosine kinase activity. The specificity of the effect of the test compounds on tyrosine kinase dependent growth over general toxicity is assessed by comparison to an HB4a cell line which has been transfected with ras. Cells are plated at 3000/ well in 96-well plates in 0.1 ml medium and allowed to attach overnight. test compound is added in 0.1 ml medium, with a final concentration of 0.5% DMSO, and the plates incubated for 4 days at 37° C. The cells are then examined microscopically for evidence of morphological detransformation and cell mass is estimated by staining with methylene blue and measuring the absorbance at 620 nm. The results are shown in Table 1 below as the IC50 values in nM. Activity against a range of naturally occurring EGFr or c-erbB-2 over-expressing human tumour cell lines (BT474-breast, HN5-head and neck, N87-gastric and Calu3-lung) is assessed with selected compounds by the same methodology. The results are also shown in Table 1 below as the IC50 values in nM.

[7] = system: N87-gastric tumour cell line; assay: Cell proliferation assay, N87; assay type: cell-based, human; conditions: Homo sapiens, 96 h; same methodology, 4 days
Protocol: as §2

[8] = system: Calu3-lung tumour cell line; assay: Cell proliferation assay, Calu3; assay type: cell-based, human; conditions: Homo sapiens, Calu-3, 96 h; same methodology, 4 days
Protocol: as §2

[9] = system: HN5-head and neck tumour cell line; assay: Cell proliferation assay, HN5; assay type: cell-based, human; conditions: Homo sapiens, 96 h; same methodology, 4 days
Protocol: as §2

T3 sequence (Q15303 676-1308 limits assumed): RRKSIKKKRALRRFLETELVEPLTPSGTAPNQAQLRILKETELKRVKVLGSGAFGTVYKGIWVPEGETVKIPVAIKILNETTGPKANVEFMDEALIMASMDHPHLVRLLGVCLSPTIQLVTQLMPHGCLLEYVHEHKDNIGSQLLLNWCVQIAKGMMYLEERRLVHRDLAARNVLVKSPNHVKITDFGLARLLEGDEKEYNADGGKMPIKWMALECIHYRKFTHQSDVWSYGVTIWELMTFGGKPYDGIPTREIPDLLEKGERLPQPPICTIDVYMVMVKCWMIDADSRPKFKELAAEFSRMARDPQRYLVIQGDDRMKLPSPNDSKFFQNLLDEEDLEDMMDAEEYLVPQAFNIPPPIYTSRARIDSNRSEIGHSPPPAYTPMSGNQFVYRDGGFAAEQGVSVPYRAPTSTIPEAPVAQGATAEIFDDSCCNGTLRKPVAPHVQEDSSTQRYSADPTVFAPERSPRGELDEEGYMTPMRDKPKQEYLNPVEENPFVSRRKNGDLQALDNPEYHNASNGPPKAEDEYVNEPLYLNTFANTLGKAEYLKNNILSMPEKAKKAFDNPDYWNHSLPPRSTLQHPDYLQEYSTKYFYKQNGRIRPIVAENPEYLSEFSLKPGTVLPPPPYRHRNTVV
Sequence of HB4a cell line transformed by over-expression of c-erbB-2 (P04626 whole entry, change not shown): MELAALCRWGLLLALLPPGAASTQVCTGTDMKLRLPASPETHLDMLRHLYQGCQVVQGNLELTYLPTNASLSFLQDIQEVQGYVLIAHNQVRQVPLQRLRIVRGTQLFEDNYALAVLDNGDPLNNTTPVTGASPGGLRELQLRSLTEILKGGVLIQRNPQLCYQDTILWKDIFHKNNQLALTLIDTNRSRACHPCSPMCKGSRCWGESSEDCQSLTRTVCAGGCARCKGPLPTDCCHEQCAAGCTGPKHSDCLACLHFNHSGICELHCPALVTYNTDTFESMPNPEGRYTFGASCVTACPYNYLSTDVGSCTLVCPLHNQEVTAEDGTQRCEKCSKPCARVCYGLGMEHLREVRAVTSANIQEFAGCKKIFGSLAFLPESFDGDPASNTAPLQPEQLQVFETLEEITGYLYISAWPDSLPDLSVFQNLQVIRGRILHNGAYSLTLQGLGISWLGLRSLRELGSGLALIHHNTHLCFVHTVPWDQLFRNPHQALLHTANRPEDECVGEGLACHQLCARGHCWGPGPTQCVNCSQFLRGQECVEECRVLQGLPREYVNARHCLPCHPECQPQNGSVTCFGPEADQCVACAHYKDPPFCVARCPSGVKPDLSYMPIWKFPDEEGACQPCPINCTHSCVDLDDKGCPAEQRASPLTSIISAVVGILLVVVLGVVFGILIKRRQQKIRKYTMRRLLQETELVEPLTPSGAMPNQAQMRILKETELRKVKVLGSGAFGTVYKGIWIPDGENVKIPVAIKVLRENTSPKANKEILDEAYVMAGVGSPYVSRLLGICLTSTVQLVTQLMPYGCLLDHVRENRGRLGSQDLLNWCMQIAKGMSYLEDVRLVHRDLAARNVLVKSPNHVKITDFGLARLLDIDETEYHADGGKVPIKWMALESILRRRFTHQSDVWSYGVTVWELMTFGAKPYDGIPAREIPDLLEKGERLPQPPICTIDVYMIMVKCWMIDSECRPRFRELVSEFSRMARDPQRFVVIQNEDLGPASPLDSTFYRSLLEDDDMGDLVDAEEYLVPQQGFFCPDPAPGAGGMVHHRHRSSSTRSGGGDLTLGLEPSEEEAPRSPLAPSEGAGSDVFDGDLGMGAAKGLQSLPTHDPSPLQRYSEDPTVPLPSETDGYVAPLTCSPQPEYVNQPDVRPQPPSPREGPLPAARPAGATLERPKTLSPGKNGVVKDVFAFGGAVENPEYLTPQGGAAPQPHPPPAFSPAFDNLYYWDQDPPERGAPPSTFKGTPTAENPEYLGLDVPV
T1 sequence (P00533 25-1210): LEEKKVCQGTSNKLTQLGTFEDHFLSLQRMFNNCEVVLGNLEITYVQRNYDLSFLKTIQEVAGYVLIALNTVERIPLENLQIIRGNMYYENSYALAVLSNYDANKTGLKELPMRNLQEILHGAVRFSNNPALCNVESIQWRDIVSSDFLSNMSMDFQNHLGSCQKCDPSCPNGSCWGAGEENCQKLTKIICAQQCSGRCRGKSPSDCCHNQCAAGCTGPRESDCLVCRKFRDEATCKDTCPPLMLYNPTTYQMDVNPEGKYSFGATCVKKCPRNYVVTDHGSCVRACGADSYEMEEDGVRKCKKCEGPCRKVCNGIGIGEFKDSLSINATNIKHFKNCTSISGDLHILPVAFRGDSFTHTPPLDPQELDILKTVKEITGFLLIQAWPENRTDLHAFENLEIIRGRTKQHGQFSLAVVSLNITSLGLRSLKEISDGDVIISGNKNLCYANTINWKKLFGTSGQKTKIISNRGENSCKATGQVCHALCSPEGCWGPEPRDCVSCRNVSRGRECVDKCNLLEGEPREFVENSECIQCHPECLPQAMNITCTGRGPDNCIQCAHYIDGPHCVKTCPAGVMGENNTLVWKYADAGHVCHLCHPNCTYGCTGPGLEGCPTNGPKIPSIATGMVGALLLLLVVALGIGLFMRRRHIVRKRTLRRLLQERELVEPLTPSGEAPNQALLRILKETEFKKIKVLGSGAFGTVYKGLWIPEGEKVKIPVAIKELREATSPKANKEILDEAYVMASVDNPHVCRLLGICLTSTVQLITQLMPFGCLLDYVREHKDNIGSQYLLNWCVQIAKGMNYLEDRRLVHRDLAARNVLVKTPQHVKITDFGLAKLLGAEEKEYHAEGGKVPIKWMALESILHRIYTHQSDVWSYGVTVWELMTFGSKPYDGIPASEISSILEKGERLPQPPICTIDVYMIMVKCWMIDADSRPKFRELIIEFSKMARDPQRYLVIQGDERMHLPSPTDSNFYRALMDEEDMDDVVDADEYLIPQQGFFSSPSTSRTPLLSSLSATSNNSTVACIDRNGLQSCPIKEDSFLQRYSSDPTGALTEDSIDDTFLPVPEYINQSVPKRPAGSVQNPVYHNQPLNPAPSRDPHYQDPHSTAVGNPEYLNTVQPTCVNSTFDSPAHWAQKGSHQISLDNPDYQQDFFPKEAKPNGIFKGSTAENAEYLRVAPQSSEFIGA
T2 sequence (P04626 676-1255 limits assumed): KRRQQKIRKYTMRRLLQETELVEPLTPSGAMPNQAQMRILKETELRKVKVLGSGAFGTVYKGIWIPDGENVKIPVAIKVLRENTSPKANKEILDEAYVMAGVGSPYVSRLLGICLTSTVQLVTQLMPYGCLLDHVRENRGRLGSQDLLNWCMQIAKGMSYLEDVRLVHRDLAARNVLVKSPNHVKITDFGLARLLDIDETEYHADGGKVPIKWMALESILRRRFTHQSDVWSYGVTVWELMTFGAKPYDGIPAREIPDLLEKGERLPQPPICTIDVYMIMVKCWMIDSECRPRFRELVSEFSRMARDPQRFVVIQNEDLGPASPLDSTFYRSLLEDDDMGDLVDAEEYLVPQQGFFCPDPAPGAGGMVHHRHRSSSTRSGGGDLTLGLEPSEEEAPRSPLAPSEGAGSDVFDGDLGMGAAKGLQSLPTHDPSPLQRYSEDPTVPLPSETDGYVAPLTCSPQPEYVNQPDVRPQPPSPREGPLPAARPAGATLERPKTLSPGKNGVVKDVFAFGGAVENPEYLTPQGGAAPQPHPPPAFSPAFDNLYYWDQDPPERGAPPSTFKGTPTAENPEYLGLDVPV

IC50 [1] [nM] | IC50 [2] [nM] | IC50 [3] [nM] | GI50 [4] [nM] | IC50 [6] [nM] | IC50 [7] [nM] | IC50 [8] [nM] | IC50 [9] [nM] | SMILES | IC50 [5] [µM]
160 | 36 | 660 | 580 | 180 | 480 | 930 | 940 | NC(=O)[C@@H]1CCCN1Cc1ccc(-c2ccc3ncnc(Nc4ccc(OCc5ccccc5)cc4)c3c2)o1 [Example 11, (S)-1-(5-(4-(4-Benzyloxy-phenylamino)-quinazolin-6-yl)-furan-2-ylmethyl)-pyrrolidine-2-carboxylicacid amide] | 14
8 | 1 | 240 | 50 | 110 | 380 | 920 | 670 | CS(=O)(=O)CCNCc1ccc(-c2ccc3ncnc(Nc4ccc5c(cnn5Cc5ccccc5)c4)c3c2)o1 [Example 19, (1-Benzyl-1H-indazol-5-yl)-(6-(5-((2-methanesulphonyl-ethylamino)-methyl)-furan-2-yl)-quinazolin-4-yl)-amine dihydrochloride] | 25
2 | 10 | 1000 | 610 | 260 | 1400 | 5300 | 970 | Cc1nnc(-c2ccc3ncnc(Nc4ccc5c(cnn5Cc5ccccc5)c4)c3c2)o1 [Example 41, (1-Benzyl-1H-indazol-5-yl)-(6-(5-methyl-1,3,4-oxadiazol-2-yl)-quinazolin-4-yl)-amine hydrochloride] | 35
